Where a SMILES comes first, the peptide text is derived from it.
Assays:
HLA-A03 = molecular target: T1, HLA-A03 (Homo sapiens, UniProt P04439); test: Competition binding assay using soluble HLA class I; details: HLA-A1101 section; read-out: binds A0301 (asterisk in Ki column)
T1 construct: endogenous in cells

DRB1*0301 = molecular target: T2, DRB1*0301 (Homo sapiens, UniProt P01903+P01911, A100K/A102G/A103R/A169T/F55Y/I96L/K41T/L162R/M171V/P40S/Q125H/Q178H/Q39Y/R42S/S66N/T106N/T262R/W38E/Y61H); test: Competition binding assay using soluble HLA class II
T2 construct: endogenous in cells; HLA-DR was extracted from cell lysates on an LB3.1 antibody column

DRB1*0401 = molecular target: T3, DRB1*0401 (Homo sapiens, UniProt P01903+P01911, A100K/A169T/F76Y/I96L/K127E/L162R/M171V/N62H/P40V/Q125Y/R42H/S133A/S149N/S66Y/V115G/V209L/W38E); test: as above; details: HLA-DRB1*0401; individual experiment or mean of several
T3 construct: endogenous in cells; host or cells: cell lysate

DRB1*0101 = molecular target: T4, DRB1*0101 (Homo sapiens, UniProt P01903+P01911, A100R/D57E/F55L/F60I/F76Y/I96L/L162R/M171V/P40L/Q125E/R42F/V115G/Y59C); test: as above
T4 construct: endogenous in cells; host or cells: cell lysate

SMILES | Ki (HLA-A03) [nM] | IC50 (DRB1*0301) [nM] | IC50 (DRB1*0401) [nM] | IC50 (DRB1*0101) [nM]
CC(C)C[C@H](NC(=O)[C@@H](N)Cc1ccc(O)cc1)C(=O)N[C@@H](CC(C)C)C(=O)N1CCC[C@H]1C(=O)N[C@@H](CCCNC(=N)N)C(=O)N[C@@H](CCCNC(=N)N)C(=O)NCC(=O)N1CCC[C@H]1C(=O)N[C@@H](CCCNC(=N)N)C(=O)O (H-YLLPRRGPR-OH) | < 1000 | – | – | –
CC(C)C[C@H](NC(=O)[C@@H](NC(=O)[C@@H](NC(=O)[C@@H](N)CC(C)C)C(C)C)C(C)C)C(=O)N[C@@H](C)C(=O)N[C@H](C(=O)N[C@@H](C)C(=O)N[C@H](C(=O)N1CCC[C@H]1C(=O)N1CCC[C@H]1C(=O)NCC(=O)N[C@@H](CO)C(=O)N[C@H](C(=O)N[C@H](C(=O)N[C@H](C(=O)O)C(C)C)[C@@H](C)O)C(C)C)[C@@H](C)O)[C@@H](C)O (H-LVVLATATPPGSVTV-OH; N-terminus and C-terminus assumed) | – | 4230 | 4 | 73
